{"source": "paper PMC6888270", "about": "(International Journal of Molecular Sciences, 2019)", "key": {"β-catenin activation": {"test_system": "β-catenin activation", "experiment": "Immunofluorescence of active β-catenin in HEK293/GnRHR cells", "format": "cell-based, human", "settings": "1 µM GnRH + 1 µM antagonist, 1 h", "method": "In order to evaluate the activation of phospho-proteins and β-catenin by Western blotting and immunofluorescence, 1 × 10^5 HEK293 cells were transiently transfected in a 24-well plate. To this purpose, 500 ng of GnRHR-HA-encoding vector diluted in 2 µL/well Lipofectamine® 2000 Transfection Reagent (Invitrogen) were used, according to the manufacturer’s instructions. Transfected HEK293 cells (HEK293/GnRHR) were cultured for 48 h and maintained over-night in serum-free medium before experiments.\n3 × 10^4 HEK293/GnRHR and mock-transfected HEK293 cells (negative control) were plated on gelatine-treated slides. […] As a positive control, cells were treated for 16 h with 100 nM of the selective glycogen synthase kinase 3 (GSK3) inhibitor, CHIR99021 (Sigma-Aldrich), which stabilizes free cytosolic β-catenin [68]. After stimulations, cells were washed in PBS with Ca^2+/Mg^2+ and fixed for 20 min in paraformaldehyde 4%/PBS. Cell monolayers were washed by PBS and permeabilized using 0.1% Triton X-100. Samples were incubated in 4% bovine serum albumin (BSA)/PBS, for 1 h at room temperature (RT), before incubation with a mouse primary antibody targeting β-catenin (#05-665, 1:300 dilution in 4% BSA/PBS; Merck KGaA) overnight at 4 °C. Following washing, cells were then incubated with Cy3-conjugated anti-mouse IgG secondary antibody (#C2181, 1:200 dilution in 4% BSA/PBS; Sigma-Aldrich) for 1 h at RT. Cell monolayers were then stained for 10 min with 4′,6-diamidino-2-phenylindole (DAPI) (Sigma-Aldrich) and washed in PBS before slide treatment by polyvinyl alcohol mounting medium with 1,4-diazabicyclo[2.2.2]octane (DABCO®) (Sigma-Aldrich). Fluorescent signals were detected using the Eclipse Ni-E microscope (Nikon Instruments BV, Amsterdam, The Netherlands)."}, "Lhb gene expression": {"test_system": "Lhb gene expression", "experiment": "Lhb gene expression by qRT-PCR in LβT2 cells", "format": "cell-based, mouse", "settings": "1 µM GnRH + 1 µM antagonist, 24 h, n = 4", "method": "LβT2 cells were seeded in 24-well plates (2 × 10^5 cells/well) and cultured for 24 h in DMEM supplemented with 10% Charcoal Stripped FBS, 4.5 g/L glucose, 100 IU/mL penicillin, 0.1 mg/mL streptomycin, and 1 mM glutamine (all from Sigma-Aldrich) before treatments. […] Samples were lysed for RNA extraction using TRIzolTM Reagent (Invitrogen) and equal amounts of total RNA were used for cDNA synthesis performed using the iScript reverse transcriptase (BioRad), as previously described. qRT-PCR was carried out in triplicates on the CFX96TM Real-Time PCR Detection System (BioRad) using the following primers pairs: [NT] for mouse Lhb; [NT] for mouse Gapdh. Primer sequences were drawn using the Mus musculus Lhb (NCBI Reference Sequence: NM_008497.2) and Gapdh (NM_008084.3) mRNAs as templates. Gene expression of Lhb was normalized to mouse Gapdh gene expression using the 2^-ΔΔCt method."}, "GnRH receptor (GnRHR) [1]": {"target": "T1, GnRH receptor (GnRHR) (Homo sapiens, UniProt P30968)", "T1 sequence (P30968 1-328)": "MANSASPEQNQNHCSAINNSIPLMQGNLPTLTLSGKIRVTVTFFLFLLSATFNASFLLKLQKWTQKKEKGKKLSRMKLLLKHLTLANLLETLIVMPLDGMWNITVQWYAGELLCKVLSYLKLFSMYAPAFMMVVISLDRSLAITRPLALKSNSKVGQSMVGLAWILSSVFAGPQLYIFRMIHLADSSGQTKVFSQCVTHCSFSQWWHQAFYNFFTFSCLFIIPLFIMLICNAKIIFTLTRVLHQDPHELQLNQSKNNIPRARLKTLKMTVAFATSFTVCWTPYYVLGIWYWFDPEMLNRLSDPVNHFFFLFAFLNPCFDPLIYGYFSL", "experiment": "BRET measurement of GnRH-induced intracellular Ca2+ increase in SH-SY5Y/GnRHR cells", "format": "cell-based", "set-up": "HA (hemagglutinin); expressed in transfected cells", "settings": "means±SEM, n=6", "method": "(§1) Different transfection protocols were followed, depending on the endpoint to be measured. For BRET experiments, 3 × 10^4 cells were transiently transfected using vectors expressing the cAMP-CAMYEL or the aequorin-Ca^2+ BRET biosensor-encoding cDNA [59], as appropriate, together with the GnRHR-HA-encoding vector. Transfections were performed in a 96-well plate using the Metafectene PRO reagent (Biontex, München, Germany), as previously described. 100 ng of the receptor-encoding vector + 100 ng of the BRET biosensor-encoding vector were used for co-transfecting HEK293 cells, while SH-SY5Y cells were co-transfected using 200 ng of the receptor-encoding vector + 100 ng of the BRET biosensor-encoding vector. 200 ng of the aequorin-Ca^2+ BRET biosensor-encoding cDNA were used for transfecting LβT2 cells. Each sample was prepared in duplicate, cultured for 48 h and serum-starved over-night before experiments.\n(§2) To evaluate Ca^2+ increase, cells were incubated in Hank’s Balanced Salt Solution (HBSS) with Ca^2+ and Mg^2+, 1 mM Hepes and 5 µM Coelenterazine H (NanoLight Technologies, a division of Prolume, Ltd., Pinetop, AZ, USA), for 45 minutes, together with Cetrorelix, Ganirelix, Teverelix or vehicle, as appropriate. […] The EC50 was extrapolated from the curve obtained from each cell line. Cells treated by 5 µM of the sarco/endoplasmic reticulum Ca^2+ ATPase enzyme inhibitor, thapsigargin (Tocris Bioscience), served as positive control. Treatment by the vehicle (HBSS) was the negative control and used as a normalizer.\n(§3) BRET experiments were performed using a CLARIOstar plate reader equipped by a monocromator (BMG Labtech, Ortenberg, Germany), as previously described.\n(§4) Data were plotted on graphs as means ± standard error of means (SEM). The kinetics of intracellular Ca^2+ increase was represented by the BRET biosensor emission after background subtraction (vehicle). […] Data distributions were analyzed by D’Agostino and Pearson normality tests and inhibition of intracellular Ca^2+ increase by different concentrations of antagonist were compared using two-way analysis of variance (ANOVA), followed by Bonferroni post-test or Kruskal-Wallis and proper post-test. cAMP accumulation was represented as acceptor:donor emission ratio (induced BRET changes) after basal subtraction (untreated cells). Dose-response curves were obtained by data interpolation using non-linear regressions and normalized as percentage of the maximal response. EC50s, as well as half-maximal inhibitory concentrations (IC50), were compared by t-test or Mann–Whitney U test, while results obtained by Western blotting and qRT-PCR data were compared by one-way ANOVA followed by Bonferroni post-test. Statistical differences were considered as significant for p < 0.05. These analyses were performed using the GraphPad Prism software (GraphPad Software Inc., San Diego, CA, USA)."}, "GnRH receptor (GnRHR) [2]": {"target": "T1, GnRH receptor (GnRHR)", "experiment": "BRET measurement of GnRH-induced intracellular Ca2+ increase in HEK293/GnRHR cells", "format": "cell-based", "set-up": "HA (hemagglutinin); expressed in transfected cells; host or cells: HEK293 (transient co-transfection with BRET biosensor)", "settings": "means ± SEM, n = 6", "method": "as §1, §2, §3, §4"}, "[3]": {"target": "Hemagglutinin-tagged GnRHR (GnRHR-HA) (UniProt P30968)"}, "[4]": {"target": "T2, murine GnRHR (mouse (endogenous in LβT2)) (UniProt Q01776)", "T2 sequence": "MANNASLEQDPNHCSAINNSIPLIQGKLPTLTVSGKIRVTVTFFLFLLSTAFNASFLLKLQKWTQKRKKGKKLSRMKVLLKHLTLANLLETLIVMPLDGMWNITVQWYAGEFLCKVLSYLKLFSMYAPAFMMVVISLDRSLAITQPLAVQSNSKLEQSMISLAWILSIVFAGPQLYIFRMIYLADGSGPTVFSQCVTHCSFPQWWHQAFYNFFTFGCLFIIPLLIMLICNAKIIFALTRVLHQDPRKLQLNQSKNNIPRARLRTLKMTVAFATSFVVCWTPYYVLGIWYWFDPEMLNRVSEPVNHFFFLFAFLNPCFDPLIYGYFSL"}}, "note": "Square brackets hold non-standard residues; d marks the D form. Peptide text beside a SMILES is read from it. Phe(4-Cl) = N[C@@H](Cc1ccc(Cl)cc1)C(=O)O; d2Nal = N[C@H](Cc1ccc2ccccc2c1)C(=O)O; d(hCit) = NC(=O)NCCCC[C@@H](N)C(=O)O; Lys(iPr) = CC(C)NCCCC[C@H](N)C(=O)O; d3Pal = N[C@H](Cc1cccnc1)C(=O)O", "data": [{"compound": "CC(=O)N[C@H](Cc1ccc2ccccc2c1)C(=O)N[C@@H](Cc1ccc(Cl)cc1)C(=O)N[C@H](Cc1cccnc1)C(=O)N[C@@H](CO)C(=O)N[C@H](Cc1ccc(O)cc1)C(=O)N[C@H](CCCCNC(N)=O)C(=O)N[C@@H](CC(C)C)C(=O)N[C@@H](CCCCNC(C)C)C(=O)N1CCC[C@H]1C(=O)N[C@H](C)C(N)=O", "note": "[Teverelix] (Ac-[d2Nal][Phe(4-Cl)][d3Pal]S[dY][d(hCit)]L[Lys(iPr)]P[dA]-NH2)", "values": [{"measurement": "effect on GnRH-induced active β-catenin staining", "setting": "β-catenin activation", "value": "did not result in any decrease of signal"}, {"measurement": "effect on GnRH-induced Lhb gene expression", "setting": "Lhb gene expression", "value": "inhibited"}, {"measurement": "AUC of the kinetics of intracellular Ca2+ response", "setting": "GnRH receptor (GnRHR) [1]; 3xEC50 GnRH + 1 pM antagonist", "value": "143555±29053"}, {"measurement": "AUC of the kinetics of intracellular Ca2+ response", "setting": "GnRH receptor (GnRHR) [1]; 3xEC50 GnRH + 10 pM antagonist", "value": "128010±27347"}, {"measurement": "AUC of the kinetics of intracellular Ca2+ response", "setting": "GnRH receptor (GnRHR) [1]; 3xEC50 GnRH + 100 pM antagonist", "value": "110248±22209"}, {"measurement": "AUC of the kinetics of intracellular Ca2+ response", "setting": "GnRH receptor (GnRHR) [1]; 3xEC50 GnRH + 1 nM antagonist", "value": "96368±17786"}, {"measurement": "AUC of the kinetics of intracellular Ca2+ response", "setting": "GnRH receptor (GnRHR) [1]; 3xEC50 GnRH + 10 nM antagonist", "value": "81812±12486"}, {"measurement": "AUC of the kinetics of intracellular Ca2+ response", "setting": "GnRH receptor (GnRHR) [1]; 3xEC50 GnRH + 20 nM antagonist", "value": "38199±10646"}, {"measurement": "AUC of the kinetics of intracellular Ca2+ response", "setting": "GnRH receptor (GnRHR) [1]; 3xEC50 GnRH + 100 nM antagonist", "value": "76018±13231"}, {"measurement": "AUC of the kinetics of intracellular Ca2+ response", "setting": "GnRH receptor (GnRHR) [1]; 3xEC50 GnRH + 1 uM antagonist", "value": "5686±3292"}, {"measurement": "AUC of the kinetics of intracellular Ca2+ response", "setting": "GnRH receptor (GnRHR) [2]; 3 × EC50 GnRH + 1 pM antagonist", "value": "85,301 ± 21,321"}, {"measurement": "AUC of the kinetics of intracellular Ca2+ response", "setting": "GnRH receptor (GnRHR) [2]; 3 × EC50 GnRH + 10 pM antagonist", "value": "98,939 ± 27,373"}, {"measurement": "AUC of the kinetics of intracellular Ca2+ response", "setting": "GnRH receptor (GnRHR) [2]; 3 × EC50 GnRH + 100 pM antagonist", "value": "58,864 ± 27,101"}, {"measurement": "AUC of the kinetics of intracellular Ca2+ response", "setting": "GnRH receptor (GnRHR) [2]; 3 × EC50 GnRH + 1 nM antagonist", "value": "81,702 ± 18,920"}, {"measurement": "AUC of the kinetics of intracellular Ca2+ response", "setting": "GnRH receptor (GnRHR) [2]; 3 × EC50 GnRH + 10 nM antagonist", "value": "74,321 ± 17,569"}, {"measurement": "AUC of the kinetics of intracellular Ca2+ response", "setting": "GnRH receptor (GnRHR) [2]; 3 × EC50 GnRH + 75 nM antagonist", "value": "42,401 ± 8974"}, {"measurement": "AUC of the kinetics of intracellular Ca2+ response", "setting": "GnRH receptor (GnRHR) [2]; 3 × EC50 GnRH + 100 nM antagonist", "value": "29,931 ± 8731"}, {"measurement": "AUC of the kinetics of intracellular Ca2+ response", "setting": "GnRH receptor (GnRHR) [2]; 3 × EC50 GnRH + 1 µM antagonist", "value": "4107 ± 3804"}]}, {"compound": "Cetrorelix acetate (peptide)", "values": [{"measurement": "IC50 of inhibition of 3 × EC50 GnRH-induced cAMP accumulation (CAMYEL BRET), HEK293/GnRHR cells", "setting": "[3]", "value": 0.84, "unit": "nM"}, {"measurement": "IC50 of inhibition of 3 × EC50 GnRH-induced cAMP accumulation (CAMYEL BRET), SH-SY5Y/GnRHR cells", "setting": "[3]", "value": 1.56, "unit": "nM"}]}, {"compound": "Teverelix (peptide)", "values": [{"measurement": "IC50 of inhibition of 3 × EC50 GnRH-induced cAMP accumulation (CAMYEL BRET), HEK293/GnRHR cells", "setting": "[3]", "value": 0.49, "unit": "nM"}, {"measurement": "IC50 of inhibition of 3 × EC50 GnRH-induced cAMP accumulation (CAMYEL BRET), SH-SY5Y/GnRHR cells", "setting": "[3]", "value": 62.8, "unit": "nM"}]}, {"compound": "Ganirelix acetate (peptide)", "values": [{"measurement": "IC50 of inhibition of 3 × EC50 GnRH-induced cAMP accumulation (CAMYEL BRET), HEK293/GnRHR cells", "setting": "[3]", "value": 0.61, "unit": "nM"}, {"measurement": "IC50 of inhibition of 3 × EC50 GnRH-induced cAMP accumulation (CAMYEL BRET), SH-SY5Y/GnRHR cells", "setting": "[3]", "value": 16.6, "unit": "nM"}]}, {"compound": "Gonadotropin releasing hormone (GnRH) (from UniProt P01148 24-33) (peptide)", "values": [{"measurement": "EC50 of GnRH-induced intracellular Ca^2+ accumulation (BRET biosensor), LβT2 cells", "setting": "[4]", "value": 1.8, "unit": "nM"}]}]}
